From patent publication US9950071B2, “Hybrid anticancer prodrug simultaneously producing cinnamaldehyde and quinone methide and method for preparing same” (INDUSTRIAL COOPERATION FOUNDATION CHONBUK NATIONAL …, priority 2014, dated 2018)

How the values were obtained:
[1] = test system: prostate cancer cell line DU145; assay: generation of reactive oxygen species by flow cytometry (DCFH-DA); format: cell-based; details: DU145, treated 12 hr, compared with cinnamaldehyde
Description: The prostate cancer cell line DU145 (4×10^5) was inoculated in a 24-well culture plate and cultured for 24 hr, and treated with cinnamaldehyde or QCA for 12 hr. Cells were washed with a new medium twice and resuspended in a 1× binding buffer at a concentration of 1×10^5 cells/mL. 100 μL of the cell suspension was transferred to 5 mL of a culture tube and added with 5 μM of 2′,7′-dichlorofluorescein diacetate (DCFH-DA) and softly mixed. The cells were dark-cultured for 15 min at room temperature and added with 400 μL of the 1× binding buffer. The stained cells were measured by using a flow cytometry (FACS Caliber, Becton Dickinson, San Jose, Calif.) and the result was illustrated in FIG. 8. A total of 1.5×10^4 cells per sample were analyzed.

[2] = QCA structure after hydrolysis in tumor environment (1H NMR); format: physicochemical
Description: In a tumor environment, in order to verify a structure of the QCA triggered by double stimulus, the QCA was cultured for 24 hr at pH 5.5 and verified through ^1H NMR and the structure of the QCA was illustrated in FIG. 5.

DU145 cells = assay: flow cytometry with Annexin V-FITC and propidium iodide; format: cell-based; details: DU145, treated 24 hr, compared with cinnamaldehyde and Q1
Description: (§1) Further, in order to support the result of the DNA fragmentation assay, the DU145 and SW620 cells were cultured for 24 hr and treated with cinnamaldehyde, Q1 or QCA for 24 hr and then flow cytometry was performed by using Annexin V-FITC as a marker of apoptosis and propidium iodide (PI) as a marker for […], and the result was illustrated in FIGS. 15 and 16.

SW620 cells [3] = assay: as above; format: cell-based; details: SW620, treated 24 hr, compared with cinnamaldehyde and Q1
Description: as §1

[4] = test system: DU145, SW620 and NIH3T3 cells; assay: cytotoxicity by MTT assay; format: cell-based; details: 24 hr treatment, various amounts
Description: The cytotoxities of the QCA prepared in Example 1 and the QBCA prepared in Example 2 were measured by an MTT assay. In detail, a prostate cancer cell line DU145, a colorectal cancer cell line SW620, and a fibroblast cell NIH3T3 were inoculated in a 24-well plate with the density of 1×10^5 cells/well, respectively, and cultured for 24 hr to reach up to 90% confluency. The cells were treated with various amounts of QCA, QBCA, Q1, or cinnamaldehyde and cultured for 24 hr. 100 μL of the MTT solution was put each well and the cells were cultured for 4 hr. The generated formazan crystals were dissolved in 200 μL of dimethylsulfoxide. After 10 min of the culture, an absorbance at 570 nm was measured by using a micro plate reader (Biotek Instruments, Winooski, Vt.). A cell survival rate was determined by comparing absorbances of cells in a control group and QCA or QBCA-treated cells, and the results were illustrated in FIGS. 9 and 10.

tumor lysate = tumor lysate analysis by LC-MS (generation of QM and cinnamaldehyde); format: in vivo, mouse
Description: In the tumor, in order to verify whether to generate the QM and the cinnamaldehyde in the tumor, a tumor lysate was analyzed by LC-MS after 22 days and the result thereof was illustrated in FIG. 19.

[5] = toxicity of QCA: ALT evaluation and H&E staining of liver and heart; format: in vivo; details: 2 mg/kg, 10 days, once per 2 days
Description: In order to verify the stability of the QCA, after 2 mg/kg of the QCA was injected to the mouse for 10 days once per 2 days, alanine transaminase (ALT) evaluation and H&E staining of the liver and heart tissues were performed, and the result thereof was illustrated in FIGS. 24 and 25.

[6] = test system: xenograft mouse model of DU145 and SW620; assay: growth and size of tumor in xenograft model; format: in vivo; details: for growth inhibition effect of the tumor / size of the tumor: 2 mg/kg through tail vein every 3 days
Description: In order to verify in vivo anticancer activity of the QCA, a tumor in a xenograft model was observed. First, cancer cells were injected to a side hypodermic tissue of mouse by using a xenograft mouse model of DU145 and SW620 and when the tumor after cell transplantation started to be touched small, cinnamaldehyde, Q1, and cinnamaldehyde and Q1, or QCA was administrated by 2 mg/kg though tail vein every 3 days, and then the size of the tumor in the mouse was measured and the result thereof was illustrated in FIG. 17. Further, different amounts of QCA were administrated to the mouse having the tumor and in order to compare the effect thereof, 2 mg/kg of camptotethin (CPT) as an anticancer agent which was commercialized was administrated in other mouse, and then the size of the tumor of the mouse was measured and the result thereof was illustrated in FIG. 18.

SW620 tumor mouse model = assay: histologic examination of tumor (H&E and TUNEL staining); format: in vivo; details: 21 days, once per three days
Description: In order to verify the apoptosis induced by the QCA, in a SW620 tumor mouse model, H&E staining of the tumor was performed after administrating cinnamaldehyde, Q1, the cinnamaldehyde and the Q1, or QCA for 21 days once per three days, and the result thereof was illustrated in FIG. 20. Further, terminal deoxynucleotidyl transferase dUTP nick end labeling (TUNEL) staining of the tumor was performed by the same method, and the result thereof was illustrated in FIG. 21.

[7] = test system: procaspase-3 and PARP-1 in DU145 cells; assay: immunoblot analysis; format: cell-based; details: DU145, 8 hr, various concentrations
Description: (§2) The prostate cancer cell line DU145 and the colorectal cancer cell line SW620 (1×10^6/well) were treated with cinnamaldehyde or QCA for 8 hr at various concentrations and washed with new PBS twice. Proteins were extracted from the cells by using a lysis buffer solution. Electrophoresis was performed by using […] of a cell lysate in a […] and the proteins were transferred to a PVDF membrane (Millipore, Billerica, Mass.). A blot was cultured together with a PARP monoclonal antibody (Santa Cruz Biotechnology, Dallas, Tex.) or caspase-3 (Santa Cruz Biotechnology, Dallas, Tex.) and a HRP-coupled anti-goat antibody (Millipore, Billerica, Mass.) was used as a secondary antibody. An immunoblot signal was verified by using a chemiluminescent reagent (Pierce, Rockford, Ill.) of SuperSignal Ultra and the result thereof was illustrated in FIGS. 11 and 12.

[8] = test system: procaspase-3 and PARP-1 in SW620 cells; assay: immunoblot analysis; format: cell-based; details: SW620, 8 hr, various concentrations
Description: as §2

liver and heart tissues = assay: organ damage, H&E and TUNEL staining of liver and heart tissues; format: in vivo, mouse; details: 21 days, once per three days
[9] = test system: colorectal cancer cell line SW620; assay: cell GSH level (Ellman's reagent); format: cell-based
Description: (§3) A prostate cancer cell line DU145, a colorectal cancer cell line SW620, and a fibroblast cell NIH3T3 were inoculated in a 6-well plate (5×10^5/well) to reach 80% confluency. The cell lines were treated with various compounds for 1.5 hr at 37° C. and then, cells were obtained and washed with PBS. Thereafter, the cells were lysed in ice in 40 μL of a Triton X-100 lysis buffer solution. After 20 min, the lysate was centrifuged with 9,000 g and 10 μL of a supernatant was mixed with 50 μL of an Ellman's reagent (0.5 mM DTNB). The amount of GSH was quantified by measuring an absorbance at 405 nm using a microplate reader (Biotek Instruments, Winooski, Vt.). In the treated cells, a percentage of the GSH content was compared with the base GSH content measured in untreated cells, and the result was illustrated in FIG. 7.

fibroblast cell NIH3T3 = assay: cell GSH level (Ellman's reagent); format: cell-based; details: NIH3T3, 1.5 hr at 37° C., compared with untreated cells
Description: as §3

[10] = test system: prostate cancer cell line DU145; assay: cell GSH level (Ellman's reagent); format: cell-based
Description: as §3

SW620 cells [11] = assay: DNA fragmentation assay (electrophoresis); format: cell-based
Description: In order to verify an effect of the QCA on the DNA fragments, a DNA fragmentation assay of SW620 was performed. First, the DU145 and SW620 cells were cultured for 24 hr and then treated with 100 μm of cinnamaldehyde, 100 μm of Q1 (4-(1,3,2-dioxaborinan-2-yl)benzyl carbonate, and generating only quinone methide), and 25 μm, 50 μm, 100 μm of the QCA to isolate the DNA and the fragmentation of the nucleosomal DNA was observed by electrophoresis, and the result thereof was illustrated in FIG. 13.
Further, hereinabove, the DNA fragments of the SW620 treated with 100 μm of the QCA were analyzed over time and the result thereof was illustrated in FIG. 14.

[12] = in vivo; cited from earlier work

## CC1(COC(=O)OCc2ccc(B3OCCCO3)cc2)COC(/C=C/c2ccccc2)OC1 (stereo not shown) [QCA, 4-(1,3,2-dioxaborinan-2-yl)benzyl ((5-methyl-2-styryl-1,3-dioxan-5-yl)methyl)carbonate]
[1]
  apoptosis / cell toxicity by ROS generation (FIG. 8): much higher cell toxicity than the cinnamaldehyde
[2]; H2O2-mediated, peaks 6.9 and 6.4 ppm
  boronate oxidation and formation of hydroxybenzyl alcohol (1H NMR): formation of hydroxybenzyl alcohol and oxidation of H2O2-mediated boronate were verified
[2]; cultured 24 hr at pH 5.5, aldehyde peak 9.4 ppm
  release of cinnamaldehyde by acetal bond cleavage (1H NMR): cinnamaldehyde generated while an acetal bond was broken
DU145 cells
  apoptosis (Annexin V / PI): faster apoptosis than the cinnamaldehyde and Q1-treated cells
SW620 cells [3]
  apoptosis (Annexin V / PI): faster apoptosis than the cinnamaldehyde and Q1-treated cells
[4]
  cytotoxicity (cell survival rate, MTT): increased according to a concentration
Tumor lysate; liver, after 22 days
  QM and cinnamaldehyde in the liver: not detected
Tumor lysate; tumor lysate after 22 days
  GSH value in tumor lower than the tumor of the untreated mouse: up to 38%
Tumor lysate; tumor lysate after 22 days, new peak same as cinnamaldehyde treatment
  generation of cinnamaldehyde in the tumor: cinnamaldehyde was generated
[5]
  evidence of toxicity accumulated in the liver and the heart (H&E): not observed
  serum ALT level compared with the untreated mouse: a little difference
[6]
  growth inhibition effect of the tumor / size of the tumor: significantly smaller size of the tumor
[6]; QCA 1 mg/kg or less
  anticancer activity (size of the tumor): a different anticancer activity was not shown
[6]; QCA 2 mg/kg, compared with 2 mg/kg CPT
  anticancer activity (size of the tumor): prominent anticancer activity
SW620 tumor mouse model
  apoptosis in tumor tissue (H&E, TUNEL): apoptosis of no-nuclear cells was widely shown
[7]
  expression of PARP-1: concentration-dependently reduced
  expression of procaspase-3: concentration-dependently reduced
[8]
  expression of PARP-1: concentration-dependently reduced
  expression of procaspase-3: concentration-dependently reduced
Liver and heart tissues
  organ damage (liver and heart, H&E and TUNEL): did not induce a particular organ damage
[9]; SW620, 50 μM
  GSH level at 50 μM: Most of GSH was depleted
[9]; SW620, 100 μM
  further reduction of the GSH at 100 μM: not further observed
[9]; SW620, 1.5 hr at 37° C., compared with untreated cells
  GSH level: significantly reduced in a dose-dependent manner
Fibroblast cell NIH3T3
  GSH level: no effect
[10]; DU145, 50 μM
  GSH level at 50 μM: Most of GSH was depleted
[10]; DU145, 100 μM
  further reduction of the GSH at 100 μM: not further observed
[10]; DU145, 1.5 hr at 37° C., compared with untreated cells
  GSH level: significantly reduced in a dose-dependent manner
SW620 cells [11]; SW620, 100 μm QCA, over time
  amount of the DNA fragments over time: gradually increased in a concentration and time-dependent manner
SW620 cells [11]; SW620, QCA 25, 50, 100 μm vs 100 μm cinnamaldehyde and 100 μm Q1
  DNA fragments (nucleosomal DNA ladder): more DNA fragments than the cinnamaldehyde and the Q1

## CC1(COC(=O)OCc2ccc(B3OCCCO3)cc2)COC(/C=C/c2ccccc2OC(=O)c2ccccc2)OC1 (stereo not shown) [QBCA, 4-(1,3,2-dioxaborinan-2-yl)benzyl ((5-methyl-2-(2-benzoyloxyphenyl)vinyl-1,3-dioxan-5-yl)methyl)carbonate]
[4]
  cytotoxicity (cell survival rate, MTT): increased according to a concentration

## 4-(1,3,2-dioxaborinan-2-yl)benzyl carbonate [Example Q1, reference compound]
[6]
  growth inhibition effect of the tumor / size of the tumor: slight

## O=CC=Cc1ccccc1 [cinnamaldehyde]
[2]; 72 hr, neutral pH, without H2O2
  change after culture at neutral pH without H2O2: any change was not observed
[6]
  growth inhibition effect of the tumor / size of the tumor: slight
[12]
  half-life: less than 1.5 hr
